Drawing on DBAASP, this text covers MIC for four molecules.

What is called MIC is the least concentration at which growth counts as inhibited. A lower MIC goes with inhibition by little substance.

Among the test systems are Pseudomonas fluorescens; Pseudomonas putida; Trichoderma asperellum; Fusarium solani; Fusarium oxysporum; Ramulariopsis gossypii; Enterococcus faecalis A4; Enterococcus faecium; Staphylococcus aureus MR; Escherichia coli W3110; Escherichia coli NDM; Staphylococcus aureus.
Holding throughout (test): ≥ marks a high value that may be exact or a test limit, other limits are often not marked, values filed in µg/mL are converted to µM
Experiment [1] has as its system Escherichia coli ATCC 25922.
Experiment [2] relates to Listeria monocytogenes ATCC 3710.
The test system of experiment [3] is Staphylococcus aureus 3518.
Experiment [4] relates to Pseudomonas aeruginosa ATCC 15692.
The subject of experiment [5] is Proteus vulgaris KCTC 2433.
Experiment [6] has as its system Pseudomonas aeruginosa 3543.
Experiment [7] has as its system Staphylococcus aureus ATCC 29213.
Experiment [8] concerns Pseudomonas aeruginosa 4007.
Experiment [9] relates to Bacillus subtilis KCTC 1998.
Experiment [10] relates to Staphylococcus epidermidis ATCC 12228.
In experiment [11] the test system is Escherichia coli CCARM 1238.
Experiment [12] has as its system Staphylococcus aureus AB94004.
The test system of experiment [13] is Klebsiella oxytoca AB2010143.
In experiment [14] the test system is Salmonella enterica AB2010185.
In experiment [15] the test system is Bacillus magaterium AB90008.
For experiment [16], the system named is Escherichia coli DH5alpha.
For experiment [17], the system named is Micrococcus luteus AB2010179.
The test system of experiment [18] is Enterobacter cloacae AB2010162.
Experiment [19] relates to Staphylococcus aureus ATCC 25923.
The test system of experiment [20] is Candida albicans ATCC 90028.
The test system of experiment [21] is Cryptococcus neoformans ATCC 28957.
Experiment [22] concerns Pectobacterium carotovorum.
Experiment [23] concerns Pseudomonas aeruginosa ATCC 27853.
Experiment [24] deals with Xanthomonas campestris pv. citri.
Experiment [25] relates to Pseudomonas syringae pv. tabaci.
Experiment [26] relates to Bacillus cereus ATCC 14579.
Experiment [27] deals with Bacillus subtilis ATCC 23857.
Experiment [28] has as its system Fusarium oxysporum f.sp. vasinfectum.
The subject of experiment [29] is Acinetobacter baumannii AB5075.
In experiment [30] the test system is Bacillus amyloliquefaciens ATCC 23842.
Experiment [31] concerns Staphylococcus aureus 215.
The test system of experiment [32] is Bacillus subtilis ATCC 6051.
In experiment [33] the test system is Enterococcus faecalis 1F-1.
Experiment [34] relates to Pseudomonas aeruginosa PA14.
For experiment [35], the system named is Enterococcus faecium 5F-10.
The test system of experiment [36] is Bacillus licheniformis ATCC 14580.

In brackets after ≈: the same amount, converted by molar mass. Several values for one entry are separate records, joined by “and”; a condition that tells them apart may be missing. Equal entries are not always repeated.

Turning to `CC[C@H](C)[C@H](NC(=O)[C@H](Cc1ccccc1)NC(=O)[C@H](CCCN=C(N)N)NC(=O)[C@H](CC(C)C)NC(=O)[C@@H](N)Cc1ccccc1)C(=O)NCC(=O)N[C@@H](CO)C(=O)N[C@H](C(=O)N[C@@H](CCCCN)C(=O)N[C@@H](Cc1cnc[nH]1)C(=O)NCC(=O)N[C@@H](CCCCN)C(=O)NCC(=O)N[C@@H](Cc1cnc[nH]1)C(=O)N[C@@H](CC(C)C)C(=O)N[C@H](C(=O)N[C@@H](Cc1cnc[nH]1)C(=O)N[C@@H](Cc1cnc[nH]1)C(=O)N[C@H](C(=O)NCC(=O)N[C@H](C(=O)N[C@@H](C)C(=O)N[C@@H](CC(C)C)C(N)=O)C(C)C)[C@@H](C)CC)C(C)C)C(C)C` [FLRFIGSVKHGKGHLVHHIGVAL], the MIC in [1] was 2 µM and 4 µM; in experiment [2], 4 µM (≈ 10.1 µg/mL); in experiment [3], 8 µM (≈ 20.2 µg/mL); in experiment [4], at least 32 µM; in [5] it was 4 µM and 8 µM; in experiment [6] it was 4 µM (≈ 10.1 µg/mL). In addition, the MIC was 8 µM (≈ 20.2 µg/mL) in experiment [7]; 2 µM (≈ 5.04 µg/mL) in experiment [8]; 4 µM (≈ 10.1 µg/mL) in [9]; 4 µM and 8 µM in [10]; 2 µM (≈ 5.04 µg/mL) in [11].

Consider `CC[C@H](C)[C@H](NC(=O)[C@H](CC(C)C)NC(=O)[C@H](CCCCN)NC(=O)[C@H](CC(C)C)NC(=O)[C@H](C)NC(=O)CNC(=O)[C@H](CCCCN)NC(=O)[C@H](C)NC(=O)[C@H](CC(C)C)NC(=O)[C@H](C)NC(=O)CNC(=O)[C@H](Cc1c[nH]c2ccccc12)NC(=O)[C@@H](N)Cc1ccccc1)C(=O)N1CCC[C@H]1C(=O)N[C@@H](CO)C(=O)N[C@@H](CC(C)C)C(=O)N[C@H](C(=O)N[C@@H](CO)C(=O)N[C@@H](CO)C(=O)N[C@@H](Cc1ccccc1)C(=O)N[C@H](C(N)=O)[C@@H](C)O)C(C)C` [FWGALAKGALKLIPSLVSSFT], for which the MIC in experiment [12] is 6.9 µM (≈ 15.2 µg/mL); with Pseudomonas fluorescens it was at least 50.5 µM; in experiment [13], at least 45 µM; in experiment [14], at least 40 µM; against Pseudomonas putida, at least 35 µM; in experiment [15], 1.5 µM (≈ 3.31 µg/mL). Further, the MIC in [16] is at least 40 µM; in [17], 1.5 µM (≈ 3.31 µg/mL); in [18], at least 45 µM.

`CSCC[C@H](NC(=O)[C@H](Cc1ccccc1)NC(=O)CNC(=O)[C@H](Cc1cnc[nH]1)NC(=O)[C@H](CC(C)C)NC(=O)[C@H](CO)NC(=O)CN)C(=O)N[C@@H](Cc1ccc(O)cc1)C(=O)N[C@@H](CCCCN)C(=O)N[C@@H](Cc1ccc(O)cc1)C(=O)N[C@@H](CC(C)C)C(=O)N[C@@H](CCCCN)C(=O)N[C@@H](CC(N)=O)C(=O)N[C@@H](CCSC)C(=O)N[C@H](C(=O)N[C@@H](CC(C)C)C(=O)N[C@@H](CC(N)=O)C(=O)N[C@@H](CC(C)C)C(=O)N[C@@H](Cc1ccccc1)C(N)=O)C(C)C` [GSLHGFMYKYLKNMVLNLF]: the MIC was 13.3 µM (≈ 30.3 µg/mL) in experiment [19]; 6.67 µM (≈ 15.2 µg/mL) against Trichoderma asperellum; at least 32 µM against Fusarium solani; 32 µM (≈ 72.8 µg/mL) in experiment [1]; 4 µM (≈ 9.1 µg/mL) in [20]; 10.7 µM (≈ 24.3 µg/mL) in experiment [21]. Moreover, the minimal inhibitory concentration (MIC) is at least 128 µM in experiment [22]; 26.7 µM (≈ 60.7 µg/mL) in [23]; at least 64 µM in experiment [24]; 16 µM (≈ 36.4 µg/mL) with Fusarium oxysporum; 16 µM (≈ 36.4 µg/mL) in experiment [25]; at least 64 µM in [26]. The MIC in experiment [27] was 16 µM (≈ 36.4 µg/mL); with Ramulariopsis gossypii, 4 µM (≈ 9.1 µg/mL); in [28], 16 µM (≈ 36.4 µg/mL).

As for `CC[C@H](C)[C@H](NC(=O)[C@H](C)NC(=O)[C@@H](NC(=O)[C@@H]1CCCN1C(=O)[C@H](CCCN=C(N)N)NC(=O)[C@H](CCCCN)NC(=O)[C@H](CO)NC(=O)[C@@H](NC(=O)[C@H](CC(C)C)NC(=O)[C@@H](NC(=O)[C@H](CCCN=C(N)N)NC(=O)[C@@H](NC(=O)[C@H](CC(C)C)NC(=O)[C@@H](N)CCCN=C(N)N)C(C)C)[C@@H](C)CC)C(C)C)C(C)C)C(=O)N[C@@H](CCCCN)C(=O)N1CCC[C@H]1C(=O)N[C@@H](Cc1ccc(O)cc1)C(=O)N[C@@H](Cc1ccccc1)C(=O)N[C@@H](CCCN=C(N)N)C(=O)N[C@@H](CC(C)C)C(=O)O` [RLVRILVSKRPVAIKPYFRL], the MIC against Enterococcus faecalis A4 stood at 1.65 µM (≈ 4 µg/mL); in experiment [29], 2 µM (≈ 4.85 µg/mL); in experiment [30], 26.4 µM (≈ 64 µg/mL); in experiment [31] it was 26.4 µM (≈ 64 µg/mL); in experiment [32], 26.4 µM (≈ 64 µg/mL); against Enterococcus faecium, 1.65 µM (≈ 4 µg/mL). For the same molecule, the MIC in the experiment on Staphylococcus aureus MR was 26.4 µM (≈ 64 µg/mL); in the experiment with Escherichia coli W3110 it was 4 µM (≈ 9.7 µg/mL); in experiment [33], 1.65 µM (≈ 4 µg/mL); in experiment [26], 26.4 µM (≈ 64 µg/mL); in [7], above 26.4 µM; in experiment [34], 8 µM (≈ 19.4 µg/mL). In addition, the MIC in experiment [35] came to 0.825 µM (≈ 2 µg/mL); against Escherichia coli NDM, 8 µM (≈ 19.4 µg/mL); in the experiment with Staphylococcus aureus, 13.2 µM (≈ 32 µg/mL); in experiment [36], 26.4 µM (≈ 64 µg/mL).
